Laboratory results reported in ChEMBL document CHEMBL1201862, “PubChem BioAssay data set” (2004).
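Assay format: 96-well plates, 48-hour exposure. GI50 marks 50% less growth.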 Calls of active or inactive are those of the source. Cut-off read from the data, not from the text of the source: active = GI50 up to about 1.1 µM and inactive = higher.

Columns and labels:
Assay in all cases: NCI anticancer screen, dose series, 48 h
HOP-92 = tested on: HOP-92
OVCAR-8 = tested on: OVCAR-8
OVCAR-4 = tested on: OVCAR-4
UACC-62 = tested on: UACC-62
SF-295 = tested on: SF-295
NCI-H226 = tested on: NCI-H226
HL-60 = tested on: HL-60
MOLT-4 = tested on: MOLT-4
M14 = tested on: M14
OVCAR-5 = tested on: OVCAR-5
TK-10 = tested on: TK-10
A549 = tested on: A549
A498 = tested on: A498
CCRF-CEM = tested on: CCRF-CEM
NCI-H522 = tested on: NCI-H522
U-251 = tested on: U-251
786-0 = tested on: 786-0
SK-MEL-28 = tested on: SK-MEL-28
DU-145 = tested on: DU-145
MDA-MB-435 = tested on: MDA-MB-435

SMILES	GI50 (HOP-92)	GI50 (OVCAR-8)	GI50 (OVCAR-4)	GI50 (UACC-62)	GI50 (SF-295)	GI50 (NCI-H226)	GI50 (HL-60)	GI50 (MOLT-4)	GI50 (M14)	GI50 (OVCAR-5)	GI50 (TK-10)	GI50 (A549)	GI50 (A498)	GI50 (CCRF-CEM)	GI50 (NCI-H522)	GI50 (U-251)	GI50 (786-0)	GI50 (SK-MEL-28)	GI50 (DU-145)	GI50 (MDA-MB-435)
CCCCCCCCCCCCC(=O)CCCCC(=O)O	18.6 µM (inactive)	17.5 µM (inactive)	58.5 µM (inactive)	17.9 µM (inactive)	23.4 µM (inactive)	22.9 µM (inactive)	13.5 µM (inactive)	14.6 µM (inactive)	17.5 µM (inactive)	18.2 µM (inactive)	44.9 µM (inactive)	18.3 µM (inactive)	16.8 µM (inactive)	33.7 µM (inactive)	20.3 µM (inactive)	24.4 µM (inactive)	27.2 µM (inactive)	20.7 µM (inactive)	–	–
O=C1Oc2ccccc2N/C1=C/C(=O)c1ccc(Cl)cc1	–	42.5 µM (inactive)	> 100 µM (inactive)	32.4 µM (inactive)	51.4 µM (inactive)	> 100 µM (inactive)	–	> 100 µM (inactive)	> 100 µM (inactive)	> 100 µM (inactive)	> 100 µM (inactive)	60.3 µM (inactive)	> 100 µM (inactive)	7.96 µM (inactive)	38.1 µM (inactive)	> 100 µM (inactive)	> 100 µM (inactive)	–	> 100 µM (inactive)	61.4 µM (inactive)
CN(CC(=O)O)c1ccc(/C=C/c2ccnc3ccccc23)cc1	22.9 µM (inactive)	27.7 µM (inactive)	–	19.6 µM (inactive)	18.1 µM (inactive)	–	11.4 µM (inactive)	–	22.2 µM (inactive)	29.2 µM (inactive)	19.7 µM (inactive)	17.5 µM (inactive)	17.1 µM (inactive)	13.8 µM (inactive)	5.47 µM (inactive)	22.8 µM (inactive)	28.1 µM (inactive)	40 µM (inactive)	33.6 µM (inactive)	14.1 µM (inactive)
OC(Cn1cncn1)(Cn1cncn1)c1ccc(Cl)cc1Cl	> 100 µM (inactive)	> 100 µM (inactive)	> 100 µM (inactive)	> 100 µM (inactive)	> 100 µM (inactive)	> 100 µM (inactive)	> 100 µM (inactive)	> 100 µM (inactive)	> 100 µM (inactive)	> 100 µM (inactive)	> 100 µM (inactive)	> 100 µM (inactive)	> 100 µM (inactive)	> 100 µM (inactive)	> 100 µM (inactive)	> 100 µM (inactive)	> 100 µM (inactive)	> 100 µM (inactive)	–	–
C[C@@H]1OC(=O)C[C@H]2CC(=O)N(CCC3CN(S(=O)(=O)C(F)(F)F)c4ccccc43)C[C@@H]21 (stereo partly specified)	> 100 µM (inactive)	–	> 100 µM (inactive)	> 100 µM (inactive)	> 100 µM (inactive)	–	–	> 100 µM (inactive)	> 100 µM (inactive)	> 100 µM (inactive)	–	> 100 µM (inactive)	> 100 µM (inactive)	> 100 µM (inactive)	> 100 µM (inactive)	> 100 µM (inactive)	> 100 µM (inactive)	> 100 µM (inactive)	> 100 µM (inactive)	> 100 µM (inactive)
C/C(CCN(C)C)=N\OC(=O)c1ccccc1	> 100 µM (inactive)	> 100 µM (inactive)	> 100 µM (inactive)	> 100 µM (inactive)	63.7 µM (inactive)	> 100 µM (inactive)	> 100 µM (inactive)	> 100 µM (inactive)	> 100 µM (inactive)	> 100 µM (inactive)	> 100 µM (inactive)	> 100 µM (inactive)	> 100 µM (inactive)	> 100 µM (inactive)	> 100 µM (inactive)	> 100 µM (inactive)	> 100 µM (inactive)	> 100 µM (inactive)	–	–
Nc1n[nH]c2nc3ccc(C(F)(F)F)cc3nc12	25.1 µM (inactive)	19.8 µM (inactive)	42.6 µM (inactive)	21 µM (inactive)	24.5 µM (inactive)	–	–	43.5 µM (inactive)	33.3 µM (inactive)	25.6 µM (inactive)	32.4 µM (inactive)	30.5 µM (inactive)	33 µM (inactive)	17 µM (inactive)	20.3 µM (inactive)	39.5 µM (inactive)	21 µM (inactive)	21.1 µM (inactive)	16.7 µM (inactive)	64.9 µM (inactive)
CC(=O)NC1c2ccccc2C(C)(C)C12CCC1(CC2)OCCO1 (stereo unspecified)	–	> 100 µM (inactive)	> 100 µM (inactive)	> 100 µM (inactive)	> 100 µM (inactive)	> 100 µM (inactive)	> 100 µM (inactive)	> 100 µM (inactive)	> 100 µM (inactive)	> 100 µM (inactive)	> 100 µM (inactive)	> 100 µM (inactive)	–	> 100 µM (inactive)	> 100 µM (inactive)	> 100 µM (inactive)	> 100 µM (inactive)	> 100 µM (inactive)	> 100 µM (inactive)	–
COc1cc2c3c(c1OC)Oc1ccc(cc1)CC1c4c(cc(OC)c(OC)c4Oc4ccc(cc4)CC3N(C)CC2)CCN1C (stereo unspecified)	32.6 µM (inactive)	20.2 µM (inactive)	13.3 µM (inactive)	19 µM (inactive)	18.5 µM (inactive)	15.6 µM (inactive)	15.3 µM (inactive)	21.8 µM (inactive)	18.8 µM (inactive)	56.6 µM (inactive)	22.1 µM (inactive)	26.2 µM (inactive)	0.0169 µM (active)	18.5 µM (inactive)	12.7 µM (inactive)	15.8 µM (inactive)	19.8 µM (inactive)	18.8 µM (inactive)	–	–
CC1=CC2C(=O)N(c3ccccc3)C(=O)C2CC1n1[nH]c(=O)n(Cc2ccccc2)c1=O (stereo unspecified)	> 100 µM (inactive)	> 100 µM (inactive)	> 100 µM (inactive)	> 100 µM (inactive)	> 100 µM (inactive)	> 100 µM (inactive)	> 100 µM (inactive)	–	> 100 µM (inactive)	> 100 µM (inactive)	> 100 µM (inactive)	> 100 µM (inactive)	> 100 µM (inactive)	> 100 µM (inactive)	> 100 µM (inactive)	> 100 µM (inactive)	> 100 µM (inactive)	> 100 µM (inactive)	–	–
C[Si](C)(C)C#CCOC=C1CC1	–	> 100 µM (inactive)	> 100 µM (inactive)	> 100 µM (inactive)	> 100 µM (inactive)	> 100 µM (inactive)	35.2 µM (inactive)	> 100 µM (inactive)	> 100 µM (inactive)	> 100 µM (inactive)	> 100 µM (inactive)	> 100 µM (inactive)	–	34.4 µM (inactive)	> 100 µM (inactive)	> 100 µM (inactive)	47.1 µM (inactive)	> 100 µM (inactive)	> 100 µM (inactive)	–
CN1CCCC2(CCCc3ccccc32)C1 (stereo unspecified)	69.5 µM (inactive)	> 100 µM (inactive)	> 100 µM (inactive)	> 100 µM (inactive)	> 100 µM (inactive)	> 100 µM (inactive)	> 100 µM (inactive)	> 100 µM (inactive)	> 100 µM (inactive)	> 100 µM (inactive)	> 100 µM (inactive)	> 100 µM (inactive)	> 100 µM (inactive)	> 100 µM (inactive)	> 100 µM (inactive)	> 100 µM (inactive)	> 100 µM (inactive)	> 100 µM (inactive)	–	–
Cc1c2cnccc2c(C)c2c1[nH]c1ccc(O)cc12	–	0.607 µM (active)	2.33 µM (inactive)	7.76 µM (inactive)	1.06 µM (active)	0.328 µM (active)	1.05 µM (active)	0.498 µM (active)	1.57 µM (inactive)	2.4 µM (inactive)	3.91 µM (inactive)	1.52 µM (inactive)	–	0.74 µM (active)	2.82 µM (inactive)	2.02 µM (inactive)	0.241 µM (active)	3.01 µM (inactive)	1.64 µM (inactive)	1.78 µM (inactive)
CCOC(=O)C(NC(=O)Nc1ccccc1F)(OC)C(F)(F)F (stereo unspecified)	–	> 100 µM (inactive)	–	–	–	–	> 100 µM (inactive)	> 100 µM (inactive)	> 100 µM (inactive)	> 100 µM (inactive)	> 100 µM (inactive)	> 100 µM (inactive)	> 100 µM (inactive)	> 100 µM (inactive)	–	> 100 µM (inactive)	> 100 µM (inactive)	> 100 µM (inactive)	–	> 100 µM (inactive)
Nc1nc(SC/C=C/c2ccccc2)c2[nH]cnc2n1	–	74.5 µM (inactive)	> 100 µM (inactive)	> 100 µM (inactive)	> 100 µM (inactive)	35.2 µM (inactive)	54.7 µM (inactive)	> 100 µM (inactive)	71.8 µM (inactive)	> 100 µM (inactive)	22.4 µM (inactive)	> 100 µM (inactive)	> 100 µM (inactive)	54.2 µM (inactive)	19.5 µM (inactive)	> 100 µM (inactive)	> 100 µM (inactive)	> 100 µM (inactive)	94.2 µM (inactive)	> 100 µM (inactive)
COc1cc(O)c2c(=O)c(O)c(-c3ccc(O)c(OC)c3)oc2c1 [RHAMNAZIN]	0.838 µM (active)	3.52 µM (inactive)	2.48 µM (inactive)	–	> 100 µM (inactive)	> 26.5 µM (inactive)	4.11 µM (inactive)	4.41 µM (inactive)	4.66 µM (inactive)	> 100 µM (inactive)	> 100 µM (inactive)	> 22.9 µM (inactive)	2.73 µM (inactive)	2.92 µM (inactive)	2.3 µM (inactive)	2.19 µM (inactive)	3.44 µM (inactive)	–	> 100 µM (inactive)	–
